Test results taken from ChEMBL document CHEMBL6120985, “Discovery of a potent PARP1 PROTAC as a chemosensitizer for the treatment of colorectal cancer” (Eur J Med Chem, 2025).
Activity calls are given as the source filed them. No cut-off for these calls is given here.

Assays:
[1] = tested on: HCT-116; test: Effect on Ku70 protein level in human HCT-116 cells at 1 uM in presence of SN-38 by Western blot analysis; assay type: functional, cell-based
[2] = tested on: HCT-116; test: Synergistic antiproliferative activity against human HCT-116 cells assessed as combination index at 2 uM measured after 72 hrs in presence of 2.5 nM of SN-38 by CCK-8 method; assay type: functional
[3] = target: T1, Protein cereblon/Poly [ADP-ribose] polymerase 1 (Homo sapiens, UniProt P09874+Q96SW2); test: PROTAC activity at CRBN/PARP1 in human HCT-116 cells assessed as decrease in PARP1 level at 1 uM measured after 4 hrs; assay type: cell-based
Target sequence in this assay (P09874 2-1014 limits assumed): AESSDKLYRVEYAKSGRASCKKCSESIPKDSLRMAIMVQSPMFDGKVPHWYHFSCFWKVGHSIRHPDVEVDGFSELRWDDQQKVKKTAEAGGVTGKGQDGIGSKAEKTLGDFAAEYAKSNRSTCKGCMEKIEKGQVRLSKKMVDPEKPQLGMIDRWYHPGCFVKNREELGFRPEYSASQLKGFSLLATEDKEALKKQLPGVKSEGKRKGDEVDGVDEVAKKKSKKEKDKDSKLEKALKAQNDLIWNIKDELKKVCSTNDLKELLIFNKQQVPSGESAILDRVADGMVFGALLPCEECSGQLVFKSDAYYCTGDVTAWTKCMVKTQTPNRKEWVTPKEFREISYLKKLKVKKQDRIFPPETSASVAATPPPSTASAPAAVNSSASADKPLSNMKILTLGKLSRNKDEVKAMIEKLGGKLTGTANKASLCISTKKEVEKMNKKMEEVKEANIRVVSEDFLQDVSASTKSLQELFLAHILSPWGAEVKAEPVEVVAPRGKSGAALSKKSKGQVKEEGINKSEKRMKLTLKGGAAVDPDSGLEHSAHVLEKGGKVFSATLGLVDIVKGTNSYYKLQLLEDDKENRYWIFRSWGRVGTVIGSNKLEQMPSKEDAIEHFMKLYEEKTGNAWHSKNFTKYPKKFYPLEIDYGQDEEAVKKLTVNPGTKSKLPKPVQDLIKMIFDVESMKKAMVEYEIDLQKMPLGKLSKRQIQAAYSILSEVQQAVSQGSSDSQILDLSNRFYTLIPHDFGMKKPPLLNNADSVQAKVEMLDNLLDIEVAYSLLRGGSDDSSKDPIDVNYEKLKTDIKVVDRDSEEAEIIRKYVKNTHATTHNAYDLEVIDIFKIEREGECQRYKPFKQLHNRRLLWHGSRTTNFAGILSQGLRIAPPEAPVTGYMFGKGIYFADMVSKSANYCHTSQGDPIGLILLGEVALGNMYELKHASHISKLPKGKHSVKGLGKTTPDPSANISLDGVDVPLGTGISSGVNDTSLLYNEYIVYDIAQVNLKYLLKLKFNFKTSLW
Target sequence in this assay (Q96SW2 whole entry partner): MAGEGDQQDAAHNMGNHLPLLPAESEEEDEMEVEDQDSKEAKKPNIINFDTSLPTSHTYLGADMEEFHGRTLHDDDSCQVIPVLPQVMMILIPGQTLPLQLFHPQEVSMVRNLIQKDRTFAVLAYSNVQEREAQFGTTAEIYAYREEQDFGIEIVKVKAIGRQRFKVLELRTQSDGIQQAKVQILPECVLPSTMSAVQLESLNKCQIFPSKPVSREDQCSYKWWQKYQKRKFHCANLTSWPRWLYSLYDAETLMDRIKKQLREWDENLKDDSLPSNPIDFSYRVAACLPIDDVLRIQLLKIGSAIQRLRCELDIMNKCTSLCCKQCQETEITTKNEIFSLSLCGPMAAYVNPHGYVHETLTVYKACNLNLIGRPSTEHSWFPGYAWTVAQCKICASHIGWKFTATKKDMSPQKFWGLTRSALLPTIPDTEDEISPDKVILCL

[4] = tested on: HCT-116; test: Downregulation of KRT1 level in human HCT-116 cells at 1 uM in presence of SN-38 by KEGG enrichment analysis; assay type: functional, cell-based
[5] = tested on: HCT-116; test: Synergistic antiproliferative activity against human HCT-116 cells assessed as combination index at 0.5 uM measured after 72 hrs in presence of 10 nM of SN-38 by CCK-8 method; assay type: functional
[6] = tested on: HCT-116; test: Synergistic antiproliferative activity against human HCT-116 cells assessed as combination index at 4 uM measured after 72 hrs in presence of 10 nM of SN-38 by CCK-8 method; assay type: functional
[7] = target: T1, Protein cereblon/Poly [ADP-ribose] polymerase 1; test: PROTAC activity at CRBN/PARP1 in human HCT-116 cells assessed as degradation of PARP1 measured after 24 hrs; assay type: cell-based
Target sequence in this assay (P09874 whole entry): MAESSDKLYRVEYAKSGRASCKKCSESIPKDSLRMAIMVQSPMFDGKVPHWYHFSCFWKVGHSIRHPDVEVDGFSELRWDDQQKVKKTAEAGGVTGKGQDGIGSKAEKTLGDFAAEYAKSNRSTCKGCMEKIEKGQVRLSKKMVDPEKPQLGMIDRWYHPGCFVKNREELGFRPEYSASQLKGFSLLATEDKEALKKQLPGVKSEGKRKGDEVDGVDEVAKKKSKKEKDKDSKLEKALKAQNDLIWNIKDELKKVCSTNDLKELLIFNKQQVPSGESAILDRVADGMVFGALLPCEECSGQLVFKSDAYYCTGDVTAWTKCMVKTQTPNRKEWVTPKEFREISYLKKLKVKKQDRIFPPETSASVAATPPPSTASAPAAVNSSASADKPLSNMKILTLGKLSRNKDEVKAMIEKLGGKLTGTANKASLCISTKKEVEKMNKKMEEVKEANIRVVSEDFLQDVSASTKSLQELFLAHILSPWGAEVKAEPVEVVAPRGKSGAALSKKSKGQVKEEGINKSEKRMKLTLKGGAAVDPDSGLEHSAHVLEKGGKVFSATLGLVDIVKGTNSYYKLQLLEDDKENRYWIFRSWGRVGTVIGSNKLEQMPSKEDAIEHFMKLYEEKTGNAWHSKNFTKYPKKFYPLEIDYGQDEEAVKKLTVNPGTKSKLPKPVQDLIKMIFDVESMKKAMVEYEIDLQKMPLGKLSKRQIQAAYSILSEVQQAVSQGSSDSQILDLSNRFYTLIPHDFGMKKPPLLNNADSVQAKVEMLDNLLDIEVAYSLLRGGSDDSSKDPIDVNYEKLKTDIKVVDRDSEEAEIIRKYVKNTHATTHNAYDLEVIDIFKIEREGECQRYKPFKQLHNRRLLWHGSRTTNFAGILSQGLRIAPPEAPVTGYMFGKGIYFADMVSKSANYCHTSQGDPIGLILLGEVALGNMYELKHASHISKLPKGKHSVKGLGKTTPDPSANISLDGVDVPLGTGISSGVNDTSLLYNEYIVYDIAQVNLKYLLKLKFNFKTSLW
Target sequence in this assay (Q96SW2 whole entry): as the sequence (Q96SW2 whole entry partner) above

[8] = tested on: HCT-116; test: Induction of apoptosis in human HCT-116 cells assessed as early apoptotic cells at 1 uM measured after 72 hrs by annexin V/FITC and PI staining based flow cytometry analysis (reference value: 3.43%); assay type: functional
[9] = target: T1, Protein cereblon/Poly [ADP-ribose] polymerase 1; test: PROTAC activity at CRBN/PARP1 in human HCT-116 cells assessed as degradation of PARP1 at 1 uM in presence of MG132; assay type: cell-based
Target sequence in this assay (P09874 2-1014 limits assumed): as the sequence (P09874 2-1014 limits assumed) above
Target sequence in this assay (Q96SW2 whole entry partner): as the sequence (Q96SW2 whole entry partner) above

[10] = tested on: HCT-116; test: Upregulation of CHK1 level in human HCT-116 cells at 1 uM in presence of SN-38 by Western blot analysis; assay type: functional, cell-based
[11] = tested on: HCT-116; test: Induction of cell cycle arrest in human HCT-116 cells assessed as accumulation of cells at G2/M phase at 1 uM measured after 72 hrs in presence of SN-38 by PI staining based flow cytometry analysis; assay type: functional
[12] = tested on: HCT-116; test: Upregulation of HMCN1 level in human HCT-116 cells at 1 uM in presence of SN-38 by KEGG enrichment analysis; assay type: functional, cell-based
[13] = tested on: HCT-116; test: Induction of apoptosis in human HCT-116 cells assessed as late apoptotic cells at 1 uM measured after 72 hrs by annexin V/FITC and PI staining based flow cytometry analysis (reference value: 6.80%); assay type: functional
[14] = tested on: HCT-116; test: Synergistic antiproliferative activity against human HCT-116 cells assessed as combination index at 1 uM measured after 72 hrs in presence of 1.25 nM of SN-38 by CCK-8 method; assay type: functional
[15] = tested on: HCT-116; test: Effect on Rad51 protein level in human HCT-116 cells at 1 uM in presence of SN-38 by Western blot analysis; assay type: functional, cell-based
[16] = tested on: LoVo; test: Cytotoxicity against human LoVo cells assessed as inhibition of cell growth measured after 72 hrs by CCK-8 method; assay type: functional, cell-based
[17] = tested on: HCT-116; test: Synergistic antiproliferative activity against human HCT-116 cells assessed as combination index at 2 uM measured after 72 hrs in presence of 10 nM of SN-38 by CCK-8 method; assay type: functional
[18] = target: T2, Protein cereblon/Poly [ADP-ribose] polymerase 2 (Homo sapiens, UniProt Q9UGN5+Q96SW2); test: PROTAC activity at CRBN/PARP2 in human HCT-116 cells assessed as maximum degradation of PARP2 relative to control; assay type: cell-based
Target sequence in this assay (Q96SW2 whole entry, looked up): as the sequence (Q96SW2 whole entry partner) above
Target sequence in this assay (Q9UGN5 whole entry, looked up): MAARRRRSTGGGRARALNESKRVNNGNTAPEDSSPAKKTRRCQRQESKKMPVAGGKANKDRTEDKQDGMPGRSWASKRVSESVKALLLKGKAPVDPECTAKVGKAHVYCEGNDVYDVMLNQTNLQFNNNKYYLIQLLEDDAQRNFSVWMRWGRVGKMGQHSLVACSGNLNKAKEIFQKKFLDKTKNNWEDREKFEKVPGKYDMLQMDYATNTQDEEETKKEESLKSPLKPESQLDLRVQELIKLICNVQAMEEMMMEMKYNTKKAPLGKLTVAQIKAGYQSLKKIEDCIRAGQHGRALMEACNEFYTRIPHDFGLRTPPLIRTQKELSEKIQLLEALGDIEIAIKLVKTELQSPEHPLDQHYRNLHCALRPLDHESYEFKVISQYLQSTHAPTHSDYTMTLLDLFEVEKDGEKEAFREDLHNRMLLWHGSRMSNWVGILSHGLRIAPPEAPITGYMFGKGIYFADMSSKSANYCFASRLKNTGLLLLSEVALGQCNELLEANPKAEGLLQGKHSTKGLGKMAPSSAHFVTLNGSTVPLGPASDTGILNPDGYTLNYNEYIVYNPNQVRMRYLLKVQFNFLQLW

[19] = Cytotoxicity against HEK293T cells assessed as inhibition of cell growth measured after 72 hrs by CCK-8 method; assay type: toxicity, cell-based, HEK-293T; details: human
[20] = tested on: HCT-116; test: Synergistic antiproliferative activity against human HCT-116 cells assessed as combination index at 4 uM measured after 72 hrs in presence of 5 nM of SN-38 by CCK-8 method; assay type: functional
[21] = target: T1, Protein cereblon/Poly [ADP-ribose] polymerase 1; test: PROTAC activity at CRBN/PARP1 in human HCT-116 cells assessed as degradation of PARP1 at 1 uM in presence of thalidomide; assay type: cell-based
Target sequence in this assay (P09874 2-1014 limits assumed): as the sequence (P09874 2-1014 limits assumed) above
Target sequence in this assay (Q96SW2 whole entry partner): as the sequence (Q96SW2 whole entry partner) above

[22] = target: T1, Protein cereblon/Poly [ADP-ribose] polymerase 1; test: PROTAC activity at CRBN/PARP1 in human RKO cells assessed as degradation of PARP1 measured after 24 hrs; assay type: cell-based
Target sequence in this assay (P09874 whole entry): as the sequence (P09874 whole entry) above
Target sequence in this assay (Q96SW2 whole entry): as the sequence (Q96SW2 whole entry partner) above

[23] = tested on: HCT-116; test: Induction of apoptosis in human HCT-116 cells assessed as viable cells at 1 uM measured after 72 hrs in presence of SN-38 by annexin V/FITC and PI staining based flow cytometry analysis (reference value: 89.6%); assay type: functional; details: read-out: Activity
[24] = tested on: HCT-116; test: Antagonistic antiproliferative activity against human HCT-116 cells assessed as combination index at 2 uM measured after 72 hrs in presence of 0.625 nM of SN-38 by CCK-8 method; assay type: functional
[25] = tested on: SW-620; test: Cytotoxicity against human SW620 cells assessed as inhibition of cell growth measured after 72 hrs by CCK-8 method; assay type: functional, cell-based; details: SW-620, 72 h
[26] = tested on: HCT-116; test: Effect on p53 protein level in human HCT-116 cells at 1 uM in presence of SN-38 by Western blot analysis; assay type: functional, cell-based
[27] = tested on: HCT-116; test: Upregulation of CDK1 level in human HCT-116 cells at 1 uM in presence of SN-38 by Western blot analysis; assay type: functional, cell-based
[28] = tested on: HCT-116; test: Induction of apoptosis in human HCT-116 cells assessed as early apoptotic cells at 1 uM measured after 72 hrs in presence of SN-38 by annexin V/FITC and PI staining based flow cytometry analysis (reference value: 3.43%); assay type: functional
[29] = tested on: HCT-116; test: Synergistic antiproliferative activity against human HCT-116 cells assessed as combination index at 1 uM measured after 72 hrs in presence of 10 nM of SN-38 by CCK-8 method; assay type: functional
[30] = tested on: HCT-116; test: Induction of apoptosis in human HCT-116 cells assessed as necrotic cells at 1 uM measured after 72 hrs in presence of SN-38 by annexin V/FITC and PI staining based flow cytometry analysis (reference value: 0.16%); assay type: functional
[31] = tested on: HCT-116; test: Effect on DNA-PKcs protein level in human HCT-116 cells at 1 uM in presence of SN-38 by Western blot analysis; assay type: functional, cell-based
[32] = tested on: HCT-116; test: Synergistic antiproliferative activity against human HCT-116 cells assessed as combination index at 1 uM measured after 72 hrs in presence of 5 nM of SN-38 by CCK-8 method; assay type: functional
[33] = target: T1, Protein cereblon/Poly [ADP-ribose] polymerase 1; test: PROTAC activity at CRBN/PARP1 in human HCT-116 cells assessed as degradation of PARP1 at 1 uM in presence of MLN4924; assay type: cell-based
Target sequence in this assay (P09874 2-1014 limits assumed): as the sequence (P09874 2-1014 limits assumed) above
Target sequence in this assay (Q96SW2 whole entry partner): as the sequence (Q96SW2 whole entry partner) above

[34] = tested on: HCT-116; test: Downregulation of CDC25 level in human HCT-116 cells at 1 uM in presence of SN-38 by KEGG enrichment analysis; assay type: functional, cell-based
[35] = target: T2, Protein cereblon/Poly [ADP-ribose] polymerase 2; test: PROTAC activity at CRBN/PARP2 in human HCT-116 cells assessed as degradation of PARP2; assay type: cell-based
Target sequence in this assay (Q9UGN5 whole entry): as the sequence (Q9UGN5 whole entry, looked up) above
Target sequence in this assay (Q96SW2 whole entry): as the sequence (Q96SW2 whole entry partner) above

[36] = target: T1, Protein cereblon/Poly [ADP-ribose] polymerase 1; test: PROTAC activity at CRBN/PARP1 in human RKO cells assessed as degradation of PARP1 at upto 10 uM measured after 24 hrs relative to control; assay type: cell-based
Target sequence in this assay (P09874 2-1014 limits assumed): as the sequence (P09874 2-1014 limits assumed) above
Target sequence in this assay (Q96SW2 whole entry partner): as the sequence (Q96SW2 whole entry partner) above

Activity [3]: Active
DC50 [7]: 58.1 nM
Activity [9]: inactive
Emax [18]: 84.8%
Activity [21]: inactive
DC50 [22]: 161 nM
Activity [33]: inactive
DC50 [35]: 19100 nM
Emax [36]: 95.9%
Compound: NC(=O)c1cccc2cn(-c3ccc([C@@H]4CCCN(CCC5CCN(CCC6CCN(CC7CCN(c8ccc9c(c8)C(=O)N(C8CCC(=O)NC8=O)C9=O)CC7)CC6)CC5)C4)cc3)nc12 (stereo partly specified)
Activity [1]: inactive
CI [2]: 0.856
Activity [4]: Active
CI [5]: 0.753
CI [6]: 0.538
Activity [8]: 4.03%
Activity [10]: Active
Activity [11]: Active
Activity [12]: Active
Activity [13]: 10.4%
CI [14]: 0.969
Activity [15]: inactive
IC50 [16]: 2840 nM
CI [17]: 0.766
IC50 at 72 h [19]: 4130 nM
CI [20]: 0.457
viability at 1 µM [23]: 58.2%
CI [24]: 1.241
IC50 [25]: 1630 nM
Activity [26]: inactive
Activity [27]: Active
Activity [28]: 11.9%
CI [29]: 0.698
Activity [30]: 10.2%
Activity [31]: inactive
CI [32]: 0.698
Activity [34]: Active
